{"source": "patent US6423703B1", "about": "“Use of a porphyrin for producing a medicine reducing the number of eosinophils” (Sephra S.A.R.L., priority 1998, dated 2002)", "key": {"human eosinophils": {"tested_on": "human eosinophils", "assay": "Apoptosis and survival of purified human eosinophils in culture (cytology, blue trypan)", "type": "cell-based", "conditions": "for Apoptosis of eosinophils (percentage of apoptotic eosinophils): ZnPP-IX 10 μM, IL-5 10 pM where present, RPMI 1640, average of three experiments; for Number of apoptotic cells: in the presence of IL-5", "description": "A leukocyte-rich suspension is obtained after sedimentation of whole blood, anticoagulated in the presence of dextran T500 (4.5%). 35 ml of aliquots are added to 15 mi of Ficoll. After centrifugation (30 min, 1000×g) the mononucleated cells at the interface are eliminated. The pellet which contains neutrophils, eosinophils and the corpuscles is washed and subjected to an osmotic shock in order to eliminate the corpuscles. The magnetic cellular separation system (MACS; Miltenyi Biotec) is used to purify the eosinophils by negative selection [Hansel et al, 1991, J. Immunol. Meth. 145: 105-110]. Magnetic particles anti-CD16 (1 μl/1×10^6 cells) are added to the suspension of neutrophils and eosinophils at 4° C. and kept at this temperature for 40 minutes with several placement gain in solution. The suspension is then added at the summit of the separation column in the presence of a magnetic field, the tap open at the base. 30 ml of PBS/FCS is passed through the column and the effluent is recovered. The magnetically marked cells (neutrophils) remain in the column; the unmarked cells (eosinophils) are recovered in the effluent and washed. PBS=Phosphate buffered saline FCS=Foetal calf serum\nThe freshly purified eosinophils are again placed in suspension (1.5-3×10^5 cells per ml) in RPMI 1640 (Gibco BRL) supplemented with 0.1 mM non essential amino acids, 100 U/ml of penicillin, 10 μg of streptomycine, 10 mM of HEPES, 2 mM of glutamine and 10% FCS. The aliquots of 160 μl of cellular suspension are deposited in each of the wells of a 96 well tray (Costar) containing 20 μl of IL-5 as survival factor. Twenty μl of the substance to be studied in a precise concentration or 20 μl of the medium on its own as a control are deposited in the corresponding wells. The cellular viability and the percentage of apoptotic eosinophils are counted at 24 hrs and 48 hrs with the aid of the methods below.\nBlue trypan makes it possible to evaluate cellular viability. The cellular suspension is added to an equal volume of blue trypan at 0.1% in PBS. The abso!ute number of cells excluding the blue trypan (=“living” cells) per unit volume is obtained by counting the cells in a hemocytometer (Mallassez).\nCytology: makes it possible to visualise the morphological modification of the eosinophils during apoptosis in vitro. The cellular suspension is cyto-centrifuged then the strips are coloured (kit RAL 555, Prolabo). The percentage of apoptotic cells is established by optical microscope according to their characteristic morphology (pyknotic nucleus with condensed chromatine or without a nucleus, reduction in the cells diameter, cytoplasmic condensation). The freshly isolated eosinophils from the blood circulation have a characteristic morphology in optical microscopy: a granular cytoplasm coloured red-orange by eosin and a very often bivobed nucleus. In the absence of survival factors such as IL-5, IL-3 or GM-CSF, the first morphological signs of apotosis of the eosinophils appear. The chromatin condenses and the nucleus of the eosinophil takes on a pyknotic appearance. This pyknotic appearance of the nucleus, standard in the course of apoptosis, is however rarely observed in the eosinophil, perhaps because of its brevity. Another morphological sign characteristic of apoptosis is the reduction of cellular volume which is very marked in the eosinophil (Beauvais et al, 1995, J, Leukoc. Biol. 57: 851-855). After 48 hours of incubation, the nuclear structures have disappeared in the majority of eosinophils which now appear in the form of anucleated vesicles."}, "eosinophils [1]": {"tested_on": "eosinophils", "assay": "TUNEL method, DNA fragmentation in situ in eosinophils", "type": "cell-based, human", "conditions": "IL-5 (lpM) and ZnPP-IX (10 μM); 48 hours", "description": "The TUNEL method makes it possible to visualise the apoptotic nuclei containing the fragmented DNA. Its assumption rests on the enzymatic fixation of a fluorescent marker (Fluoresceine-12-dUTP) at the free extremities of the DNA (3′-OH DNA). This technique consists of the cells in each well being cytocentrifuged then fixed by formaldehyde solution at 4% (25 min at 4° C.). After washing, the preparations are made permeable by a solution of Triton X-100 0.2% (5 min at 20° C.). The cells are incubated (1 hr at 37° C.) in the presence of a solution containing fluoresceine-12-dUTP and the enzyme TdT (terminal deoxynucleotidal transferase). The reaction is […] in a stopping solution. After mounting under a coverglass, the preparation is visualized under the fluorescence microscope (Apoptosis Detection System Fluorescein. Promega, Madison, Wis., USA).\nIn the presence of IL-5 and the control solution, there is no marking of the nuclei."}, "[2]": {"tested_on": "peritoneal hypereosinophilia", "assay": "Ovalbumin-induced peritoneal hypereosinophilia in mice", "type": "in vivo, Swiss mice", "conditions": "0.1 ml of 1 mM (3.1 mg/kg) intraperitoneal with ovalbumin challenge; 48 hrs; two mice", "description": "Swiss mice (about 20 g) are immunised sub cutaneously twice (with a 6 day interval) with 100 μg of ovalbumin in 0.4 ml of a suspension at 4 mg/ml of Al(OH)3 in NaCl 0.9%. One week after the second injection, 0.2 ml of ovalbumin at 5 μg/ml of ovalbumin are administered by intraperitoneal injection. The control mice are injected with the vehicle only.\nThe mice are killed at different times (overdose of ether) and—after dissection —undergo a peritoneal wash with 6ml of NaCl 0.9% (heparinised). After slight massage, the liquid of the wash is collected and the cellular concentration is measured in a hemocytometer. Cytocentrifugation strips are made and coloured by the Wright colorant (kit RAL 555, Prolabo, France). The differential count of mononucleated (monocytes+macrophages+lymphocytes), eosinophil and neutrophil cells is carried out objectively×100 by immersion in oil. During the peritoneal washing of the control mice, the residual cells are essentially macrophages, whereas during the peritoneal washing of mice immunised by ovalbumin, an inflammatory infiltrate with the apparition of polynuclear eosinophils and neutrophils is observed.\nThe ZnPP-IX is Injected at the same time as the second injection of ovalbumin (OVA). […] The results are represented by FIGS. 4, 5 and 6. Each column represents the average for two mice at 48 hrs."}, "[3]": {"conditions": "−20° C., protected from light and humidity; cited from earlier work"}, "neonatal jaundice [4]": {"tested_on": "neonatal jaundice", "conditions": "Rodgers et al, 1990; i.v. 25 mg/kg; 26 hrs; Rhesus monkeys (new-born); cited from earlier work"}, "cerebral ischemia": {"tested_on": "cerebral ischemia", "conditions": "i.p. 50 mg/kg, 24 hrs, adult rats, cited from earlier work"}, "neonatal jaundice [5]": {"tested_on": "neonatal jaundice", "conditions": "Rodgers et al, 1996; i.p. 25 mg/kg; 21 days; new-born rats; cited from earlier work"}, "steroidogenesis": {"tested_on": "steroidogenesis", "conditions": "Trakshel et al, 1992; s.c. 31 mg/kg (2x −4j); 7 days; rats; cited from earlier work"}, "[6]": {"tested_on": "hyperbilirubinemia due to iatrogenic hemolysis", "conditions": "Vreman et al, 1990; i.v. 25 mg/kg; 24 hrs; Rhesus monkeys (new-born); cited from earlier work"}, "neonatal jaundice [7]": {"tested_on": "neonatal jaundice", "conditions": "Qato et Maines, 1985; s.c. 25 mg/kg; 12 days; Rhesus monkeys and cynomolgus; cited from earlier work"}, "inflammation": {"tested_on": "inflammation", "conditions": "Nagai et al, 1992; 30 mg/kg; adult rats and mice; cited from earlier work"}, "[8]": {"conditions": "Hintz et al, 1990; i.p. 37 mg/kg; 12 hrs; new-born rats; cited from earlier work"}, "[9]": {"tested_on": "intestinal, splenic and hepatic hemoxygenesis", "conditions": "Vrema et al, 1988; p.o. 25 mg/kg; 6 hrs; new-born and adult rats; cited from earlier work"}, "[10]": {"conditions": "literature in vivo studies; rats, mice, monkeys; i.v., i.p., sub-cutaneous; cited from earlier work"}, "eosinophils [11]": {"tested_on": "eosinophils", "conditions": "in vitro; cited from earlier work"}}, "note": "“Also recorded” adds a separate entry of the source. Read-outs that look alike come from different tables or passages of the source.", "data": [{"compound": "C=CC1=C(C)c2cc3[n-]c(cc4[n-]c(cc5nc(cc1n2)C(C)=C5C=C)c(C)c4CCC(=O)O)c(CCC(=O)O)c3C.[Zn+2]", "note": "[ZnPP-IX, Zinc-Protoporphyrin IX]", "values": [{"measurement": "Apoptosis of eosinophils (percentage of apoptotic eosinophils)", "setting": "human eosinophils; 24 hrs", "value": "45 ± 15"}, {"measurement": "Apoptosis of eosinophils (percentage of apoptotic eosinophils)", "setting": "human eosinophils; 48 hrs", "value": "99 ± 1"}, {"measurement": "Activity on the survival and apoptosis of the eosinophils (FIG. 2)", "setting": "human eosinophils; average of two representative experiments", "value": "dosedependant activity"}, {"measurement": "Induction of the apoptosis of eosinophils", "setting": "human eosinophils; in stronger concentrations of IL5 (10 pM)", "value": "induces the apoptosis of eosinophils"}, {"measurement": "Effect on apoptosis of the eosinophils", "setting": "human eosinophils; in the absence of IL-5", "value": "accelerates the apoptosis"}, {"measurement": "Number of apoptotic cells", "setting": "human eosinophils; 24 hrs", "value": "very small"}, {"measurement": "Number of apoptotic cells", "setting": "human eosinophils; 48 hrs", "value": "practically all the cells are apoptotic"}, {"measurement": "Apoptosis of eosinophils (percentage of apoptotic eosinophils)", "setting": "human eosinophils; time 0", "value": 0}, {"measurement": "Marking of apoptotic nuclei by the TUNEL method", "setting": "eosinophils [1]", "value": "appear marked"}, {"measurement": "Inflammatory infiltrate in peritoneal wash", "setting": "[2]", "value": "reduces the inflammatory infiltrate"}, {"measurement": "Number of eosinophils in the tissues", "setting": "[2]", "value": "large decrease"}, {"measurement": "Storage stability", "setting": "[3]", "value": "at least 1 year"}, {"measurement": "Pharmacological effects", "setting": "neonatal jaundice [4]", "value": "Reduces neonatal jaundice"}, {"measurement": "Pharmacological effects", "setting": "cerebral ischemia; Kadoya et al, 1995", "value": "Protects from cerebral ischemia"}, {"measurement": "Pharmacological effects", "setting": "cerebral ischemia; Zhao et al, 1996", "value": "Protects from cerebral ischemia"}, {"measurement": "Pharmacological effects", "setting": "neonatal jaundice [5]", "value": "Reduces neonatal jaundice"}, {"measurement": "Pharmacological effects (steroidogenesis)", "setting": "steroidogenesis", "value": "No effect on steroidogenesis"}, {"measurement": "Pharmacological effects (hyperbilirubinemia due to iatrogenic hemolysis)", "setting": "[6]", "value": "Reduces hyperbilirubinemia due to"}, {"measurement": "Pharmacological effects", "setting": "neonatal jaundice [7]", "value": "Reduces neonatal jaundice"}, {"measurement": "Pharmacological effects", "setting": "inflammation", "value": "Anti-inflammatory effect"}, {"measurement": "Pharmacological effects (phototoxicity)", "setting": "[8]", "value": "No phototoxic effect"}, {"measurement": "Pharmacological effects (inhibition of intestinal, splenic and hepatic hemoxygenesis)", "setting": "[9]", "value": "No inhibitory effect on intestinal,"}, {"measurement": "Toxicity in animals", "setting": "[10]", "value": "No toxicity has been reported; also recorded: No harmful effects were revealed"}]}, {"compound": "CCN(CC)CC(=O)Nc1c(C)cccc1C", "note": "[lidocaine]", "values": [{"measurement": "Survival of eosinophils", "setting": "eosinophils [11]", "value": "reduce the survival of eosinophils"}]}, {"compound": "IL-5: Cytokine used as survival factor for the eosinophils in culture", "values": [{"measurement": "Apoptosis of eosinophils (percentage of apoptotic eosinophils)", "setting": "human eosinophils; 24 hrs", "value": "2 ± 2"}, {"measurement": "Apoptosis of eosinophils (percentage of apoptotic eosinophils)", "setting": "human eosinophils; 48 hrs", "value": "2 ± 1"}, {"measurement": "Apoptosis of eosinophils (percentage of apoptotic eosinophils)", "setting": "human eosinophils; time 0", "value": 0}]}]}
